Reference: the supplement of paper PMC10307832

Legend:
Test in all cases: relative viability (nuclei count vs DMSO), 5 days (fraction); higher = more cells survive
[1] = compound: COc1cc2ncn(-c3cc(OCc4ccccc4C(F)(F)F)c(C(N)=O)s3)c2cc1OC + N=C(N)NC(=N)NCCc1ccccc1 [Phenformin] (partner 250 µM)
Summary of the method: (§1)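 One day after seeding in 1536-well plates, lung cancer cell lines were dosed by pin tool. Dosing was either single-drug or a fixed anchor-drug dose plus five library-drug doses (not always all listed) in √10 steps. After 5 days, nuclei were stained in one fix-and-stain step and counted on 4× images, and relative viability is the nuclei count of treated wells over that of vehicle wells, given as the median of duplicate plates.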

[2] = compound: COc1cc2ncn(-c3cc(OCc4ccccc4C(F)(F)F)c(C(N)=O)s3)c2cc1OC + Nc1nc2[nH]cc(CCc3ccc(C(=O)N[C@@H](CCC(=O)O)C(=O)O)cc3)c2c(=O)[nH]1 [Pemetrexed] (partner 0.2 µM)
Summary of the method: as §1

[3] = compound: COc1cc2ncn(-c3cc(OCc4ccccc4C(F)(F)F)c(C(N)=O)s3)c2cc1OC + Cc1nc(Nc2ncc(C(=O)Nc3c(C)cccc3Cl)s2)cc(N2CCN(CCO)CC2)n1 [Dasatinib] (partner 0.075 µM)
Summary of the method: as §1

[4] = compound: COc1cc2ncn(-c3cc(OCc4ccccc4C(F)(F)F)c(C(N)=O)s3)c2cc1OC + Cc1cc(Nc2cc(N3CCN(C)CC3)nc(Sc3ccc(NC(=O)C4CC4)cc3)n2)n[nH]1 [Tozasertib] (partner 0.1 µM)
Summary of the method: as §1

[5] = compound: COc1cc2ncn(-c3cc(OCc4ccccc4C(F)(F)F)c(C(N)=O)s3)c2cc1OC + O=C(CCCCCCC(=O)Nc1ccccc1)NO [Vorinostat] (partner 1 µM)
Summary of the method: as §1

[6] = compound: COc1cc2ncn(-c3cc(OCc4ccccc4C(F)(F)F)c(C(N)=O)s3)c2cc1OC + O=C(c1cc(Cc2n[nH]c(=O)c3ccccc23)ccc1F)N1CCN(C(=O)C2CC2)CC1 [Olaparib] (partner 8 µM)
Summary of the method: as §1

[7] = compound: COc1cc2ncn(-c3cc(OCc4ccccc4C(F)(F)F)c(C(N)=O)s3)c2cc1OC + COc1cc2c(Oc3ccc(NC(=O)C4(C(=O)Nc5ccc(F)cc5)CC4)cc3F)ccnc2cc1OCCCN1CCOCC1 [Foretinib] (partner 0.25 µM)
Summary of the method: as §1

[8] = compound: COc1cc2ncn(-c3cc(OCc4ccccc4C(F)(F)F)c(C(N)=O)s3)c2cc1OC + CC(=O)c1c(C)c2cnc(Nc3ccc(N4CCNCC4)cn3)nc2n(C2CCCC2)c1=O [Palbociclib] (partner 0.5 µM)
Summary of the method: as §1

[9] = compound: COc1cc2ncn(-c3cc(OCc4ccccc4C(F)(F)F)c(C(N)=O)s3)c2cc1OC + COc1cccc2cc(-c3nc([C@H]4CC[C@H](C(=O)O)CC4)n4ncnc(N)c34)[nH]c12 [OSI-027] (partner 0.5 µM)
Summary of the method: as §1

[10] = compound: COc1cc2ncn(-c3cc(OCc4ccccc4C(F)(F)F)c(C(N)=O)s3)c2cc1OC + CCNC(=O)c1noc(-c2cc(C(C)C)c(O)cc2O)c1-c1ccc(CN2CCOCC2)cc1 [Luminespib] (partner 0.01 µM)
Summary of the method: as §1

[11] = compound: COc1cc2ncn(-c3cc(OCc4ccccc4C(F)(F)F)c(C(N)=O)s3)c2cc1OC + NC(=O)Nc1cc(-c2cccc(F)c2)sc1C(=O)N[C@H]1CCCNC1 [AZD7762] (partner 0.2 µM)
Summary of the method: as §1

[12] = compound: COc1cc2ncn(-c3cc(OCc4ccccc4C(F)(F)F)c(C(N)=O)s3)c2cc1OC + CC(=O)Nc1cccc(-n2c(=O)n(C3CC3)c(=O)c3c(Nc4ccc(I)cc4F)n(C)c(=O)c(C)c32)c1 [Trametinib] (partner 0.02 µM)
Summary of the method: as §1

[13] = compound: COc1cc2ncn(-c3cc(OCc4ccccc4C(F)(F)F)c(C(N)=O)s3)c2cc1OC + Nc1ncn([C@H]2C[C@H](O)[C@@H](CO)O2)c(=O)n1 [Decitabine] (partner 2 µM)
Summary of the method: as §1

[14] = compound: COc1cc2ncn(-c3cc(OCc4ccccc4C(F)(F)F)c(C(N)=O)s3)c2cc1OC
Summary of the method: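 Viability was defined as treated-well nuclei divided by vehicle-well nuclei, with the median taken over replicate plates. Cells from lung cancer lines sat overnight at 37 °C in 1536-well plates, received five √10-spaced library-drug doses by pinning on vehicle-anchored plates, and grew 5 days without medium change before one-step fixation, permeabilisation and Hoechst staining, 4× imaging and MetaXpress nuclear counts. Only plates with control CV under 25% and at least one doubling were kept.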

SW 900
relative viability ([1]; first compound 0.05 µM): 0.538 | relative viability ([1]; first compound 0.1581 µM): 0.503 | relative viability ([1]; first compound 0.5 µM): 0.53 | relative viability ([1]; first compound 1.581 µM): 0.33 | relative viability ([1]; first compound 5 µM): 0.14 | relative viability ([2]; first compound 0.05 µM): 0.453 | relative viability ([2]; first compound 0.1581 µM): 0.544 | relative viability ([2]; first compound 0.5 µM): 0.408 | relative viability ([2]; first compound 1.581 µM): 0.254 | relative viability ([2]; first compound 5 µM): 0.187 | relative viability ([3]; first compound 0.05 µM): 0.545 | relative viability ([3]; first compound 0.1581 µM): 0.604 | relative viability ([3]; first compound 0.5 µM): 0.5 | relative viability ([3]; first compound 1.581 µM): 0.328 | relative viability ([3]; first compound 5 µM): 0.0938 | relative viability ([4]; first compound 0.05 µM): 0.685 | relative viability ([4]; first compound 0.1581 µM): 0.661 | relative viability ([4]; first compound 0.5 µM): 0.277 | relative viability ([4]; first compound 1.581 µM): 0.253 | relative viability ([4]; first compound 5 µM): 0.244 | relative viability ([5]; first compound 0.05 µM): 0.483 | relative viability ([5]; first compound 0.1581 µM): 0.417 | relative viability ([5]; first compound 0.5 µM): 0.416 | relative viability ([5]; first compound 1.581 µM): 0.287 | relative viability ([5]; first compound 5 µM): 0.154 | relative viability ([6]; first compound 0.05 µM): 0.778 | relative viability ([6]; first compound 0.1581 µM): 0.892 | relative viability ([6]; first compound 0.5 µM): 0.601 | relative viability ([6]; first compound 1.581 µM): 0.201 | relative viability ([6]; first compound 5 µM): 0.171 | relative viability ([7]; first compound 0.05 µM): 0.857 | relative viability ([7]; first compound 0.1581 µM): 0.818 | relative viability ([7]; first compound 0.5 µM): 0.7 | relative viability ([7]; first compound 1.581 µM): 0.41 | relative viability ([7]; first compound 5 µM): 0.169 | relative viability ([8]; first compound 0.05 µM): 0.478 | relative viability ([8]; first compound 0.1581 µM): 0.5 | relative viability ([8]; first compound 0.5 µM): 0.499 | relative viability ([8]; first compound 1.581 µM): 0.399 | relative viability ([8]; first compound 5 µM): 0.257 | relative viability ([9]; first compound 0.05 µM): 0.59 | relative viability ([9]; first compound 0.1581 µM): 0.618 | relative viability ([9]; first compound 0.5 µM): 0.364 | relative viability ([9]; first compound 1.581 µM): 0.173 | relative viability ([9]; first compound 5 µM): 0.093 | relative viability ([10]; first compound 0.05 µM): 0.183 | relative viability ([10]; first compound 0.1581 µM): 0.165 | relative viability ([10]; first compound 0.5 µM): 0.205 | relative viability ([10]; first compound 1.581 µM): 0.171 | relative viability ([10]; first compound 5 µM): 0.16 | relative viability ([11]; first compound 0.05 µM): 0.575 | relative viability ([11]; first compound 0.1581 µM): 0.538 | relative viability ([11]; first compound 0.5 µM): 0.565 | relative viability ([11]; first compound 1.581 µM): 0.279 | relative viability ([11]; first compound 5 µM): 0.156 | relative viability ([12]; first compound 0.05 µM): 0.639 | relative viability ([12]; first compound 0.1581 µM): 0.778 | relative viability ([12]; first compound 0.5 µM): 0.649 | relative viability ([12]; first compound 1.581 µM): 0.433 | relative viability ([12]; first compound 5 µM): 0.124 | relative viability ([13]; first compound 0.05 µM): 0.482 | relative viability ([13]; first compound 0.1581 µM): 0.447 | relative viability ([13]; first compound 0.5 µM): 0.425 | relative viability ([13]; first compound 1.581 µM): 0.354 | relative viability ([13]; first compound 5 µM): 0.256 | relative viability ([14]; 0.05 µM): 0.91 | relative viability ([14]; 0.1581 µM): 0.827 | relative viability ([14]; 0.5 µM): 0.638 | relative viability ([14]; 1.581 µM): 0.275 | relative viability ([14]; 5 µM): 0.176
